From PubChem BioAssay AID248 (DTP/NCI, 2004)
Inconclusive results and toxic doses are left out. Rule as the data show it: active = T/C of 150% or more; inactive = T/C below 125%.

Tested on: L1210 leukemia ip in BDF1 mice, survival T/C
Assay: NCI In Vivo Anticancer Drug Screen. Data for tumor model L1210 Leukemia (intraperitoneal) in B6D2F1 (BDF1) mice
Conditions: endpoint: mean survival time, higher = longer survival
How it was run: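 In this screen, tumor-bearing mice given compound are compared to those given vehicle, and their survival values are reported as a treated-to-control quotient.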

[1] = dose: 75.0 mg/kg/injection, schedule: Q01DX001 (ip), vehicle: saline
[2] = dose: 100.0 mg/kg/injection, schedule: Q01DX009 (ip), vehicle: saline
[3] = dose: 100.0 mg/kg/injection, schedule: Q04DX003 (ip), vehicle: saline

Measured: T/C

C[N+]1(CCl)CCOCC1
inactive: dose: 1.74 mg/kg/injection, schedule: Q01DX009 (ip), vehicle: saline 104 % of control | dose: 2.6 mg/kg/injection, schedule: Q01DX009 (ip), vehicle: saline 104 % of control | dose: 4.0 mg/kg/injection, schedule: Q01DX001 (ip), vehicle: saline 105 % of control | dose: 4.0 mg/kg/injection, schedule: Q01DX009 (ip), vehicle: saline 94 % of control | dose: 4.0 mg/kg/injection, schedule: Q04DX003 (ip), vehicle: saline 100 % of control | dose: 4.0 mg/kg/injection, schedule: Q08DX002 (ip), vehicle: saline 105 % of control | dose: 6.0 mg/kg/injection, schedule: Q01DX001 (ip), vehicle: saline 102 % of control | dose: 6.0 mg/kg/injection, schedule: Q01DX009 (ip), vehicle: saline 102 % of control | dose: 6.0 mg/kg/injection, schedule: Q04DX003 (ip), vehicle: saline 98 % of control | dose: 6.0 mg/kg/injection, schedule: Q08DX002 (ip), vehicle: saline 111 % of control | dose: 9.0 mg/kg/injection, schedule: Q01DX009 (ip), vehicle: saline 100 % of control | dose: 10.0 mg/kg/injection, schedule: Q01DX001 (ip), vehicle: saline 102 % of control | dose: 10.0 mg/kg/injection, schedule: Q04DX003 (ip), vehicle: saline 105 % of control | dose: 10.0 mg/kg/injection, schedule: Q08DX002 (ip), vehicle: saline 104 % of control | dose: 14.0 mg/kg/injection, schedule: Q01DX001 (ip), vehicle: saline 104 % of control | dose: 14.0 mg/kg/injection, schedule: Q04DX003 (ip), vehicle: saline 102 % of control | dose: 14.0 mg/kg/injection, schedule: Q08DX002 (ip), vehicle: saline 107 % of control | dose: 21.0 mg/kg/injection, schedule: Q01DX001 (ip), vehicle: saline 102 % of control | dose: 21.0 mg/kg/injection, schedule: Q04DX003 (ip), vehicle: saline 100 % of control | dose: 21.0 mg/kg/injection, schedule: Q08DX002 (ip), vehicle: saline 100 % of control | [1] 98 % of control | dose: 150.0 mg/kg/injection, schedule: Q01DX001 (ip), vehicle: saline 107 % of control

CCOP(=O)(CCCCN1C(=O)c2ccccc2C1=O)OCC
inactive: dose: 31.3 mg/kg/injection, schedule: Q01DX Z (ip), vehicle: saline 101 % of control | dose: 62.5 mg/kg/injection, schedule: Q01DX Z (ip), vehicle: saline 100 % of control | dose: 125.0 mg/kg/injection, schedule: Q01DX Z (ip), vehicle: saline 103 % of control | dose: 250.0 mg/kg/injection, schedule: Q01DX Z (ip), vehicle: saline 103 % of control | dose: 500.0 mg/kg/injection, schedule: Q01DX Z (ip), vehicle: saline 92 % of control

Cc1cc(NC(=O)c2ccccc2)c(C)cc1N
inactive: dose: 100.0 mg/kg/injection, schedule: Q01DX001 (ip), vehicle: carboxymethylcellulose (CMC) 92 % of control | dose: 200.0 mg/kg/injection, schedule: Q01DX001 (ip), vehicle: carboxymethylcellulose (CMC) 99 % of control | dose: 400.0 mg/kg/injection, schedule: Q01DX001 (ip), vehicle: carboxymethylcellulose (CMC) 101 % of control

Cc1ccc(NC(=O)Oc2ccc(C(C)(C)C)cc2Br)cc1NC(=O)Oc1ccc(C(C)(C)C)cc1Br
inactive: dose: 100.0 mg/kg/injection, schedule: Q01DX009 (ip), vehicle: other 87 % of control | dose: 200.0 mg/kg/injection, schedule: Q01DX009 (ip), vehicle: other 100 % of control | dose: 400.0 mg/kg/injection, schedule: Q01DX009 (ip), vehicle: other 98 % of control

CCOC(=O)n1ncnc1N
inactive: [2] 94 % of control | [3] 91 % of control | dose: 200.0 mg/kg/injection, schedule: Q01DX009 (ip), vehicle: saline 98 % of control | dose: 200.0 mg/kg/injection, schedule: Q04DX003 (ip), vehicle: saline 98 % of control | dose: 400.0 mg/kg/injection, schedule: Q01DX009 (ip), vehicle: saline 104 % of control | dose: 400.0 mg/kg/injection, schedule: Q04DX003 (ip), vehicle: saline 95 % of control

c1ccc(-c2c(-c3ccc4c(c3)CCCC4)c(-c3ccccc3)c3c(c2-c2ccccc2)-c2cccc4cccc-3c24)cc1
inactive: dose: 100.0 mg/kg/injection, schedule: Q01DX001 (ip), vehicle: saline with Tween-80 87 % of control | dose: 200.0 mg/kg/injection, schedule: Q01DX001 (ip), vehicle: saline with Tween-80 87 % of control | dose: 400.0 mg/kg/injection, schedule: Q01DX001 (ip), vehicle: saline with Tween-80 100 % of control

CN(C)C1CCCC(OC(=O)c2ccccc2)C1 (stereo not given)
inactive: dose: 100.0 mg/kg/injection, schedule: Q04DX003 (ip), vehicle: saline sonified 98 % of control

COc1ccc(C2=CC(c3ccc(OC)c(OC)c3)c3c(c4ccccc4oc3=O)O2)cc1OC (stereo not given)
inactive: dose: 25.0 mg/kg/injection, schedule: Q01DX009 (ip), vehicle: water 93 % of control | dose: 50.0 mg/kg/injection, schedule: Q01DX009 (ip), vehicle: water 98 % of control | dose: 100.0 mg/kg/injection, schedule: Q01DX009 (ip), vehicle: water 93 % of control | dose: 200.0 mg/kg/injection, schedule: Q01DX009 (ip), vehicle: water 94 % of control | dose: 400.0 mg/kg/injection, schedule: Q01DX009 (ip), vehicle: water 92 % of control

COC(=O)C(C)NC(=O)CNC(=O)CNC(=O)OCc1ccccc1 (stereo not given)
inactive: dose: 100.0 mg/kg/injection, schedule: Q04DX003 (ip), vehicle: Klucel (hydroxypropylcellulose) (HPC) 97 % of control | dose: 200.0 mg/kg/injection, schedule: Q04DX003 (ip), vehicle: Klucel (hydroxypropylcellulose) (HPC) 100 % of control | dose: 400.0 mg/kg/injection, schedule: Q04DX003 (ip), vehicle: Klucel (hydroxypropylcellulose) (HPC) 95 % of control

O=C(NCc1ccccc1Cl)Nc1ccccc1F
inactive: dose: 100.0 mg/kg/injection, schedule: Q01DX009 (ip), vehicle: Klucel (hydroxypropylcellulose) (HPC) 106 % of control | dose: 200.0 mg/kg/injection, schedule: Q01DX009 (ip), vehicle: Klucel (hydroxypropylcellulose) (HPC) 98 % of control | dose: 400.0 mg/kg/injection, schedule: Q01DX009 (ip), vehicle: Klucel (hydroxypropylcellulose) (HPC) 115 % of control

CC(=O)Nc1cc2c(cc1[N+](=O)[O-])-c1ccccc1C2O (stereo not given)
inactive: dose: 25.0 mg/kg/injection, schedule: Q04DX003 (ip), vehicle: saline 94 % of control | dose: 50.0 mg/kg/injection, schedule: Q04DX003 (ip), vehicle: saline 100 % of control | dose: 100.0 mg/kg/injection, schedule: Q01DX001 (ip), vehicle: saline 87 % of control | [2] 102 % of control | dose: 100.0 mg/kg/injection, schedule: Q04DX003 (ip), vehicle: saline with Tween-80 102 % of control | [3] 96 % of control | dose: 150.0 mg/kg/injection, schedule: Q01DX009 (ip), vehicle: saline 92 % of control | dose: 200.0 mg/kg/injection, schedule: Q04DX003 (ip), vehicle: saline with Tween-80 101 % of control | dose: 225.0 mg/kg/injection, schedule: Q01DX009 (ip), vehicle: saline 105 % of control | dose: 400.0 mg/kg/injection, schedule: Q04DX003 (ip), vehicle: saline with Tween-80 104 % of control

C[n+]1ccccc1/C=C/c1ccc2cccc(O)c2n1
inactive: dose: 2.0 mg/kg/injection, schedule: Q01DX015 (ip), vehicle: saline 95 % of control | dose: 4.0 mg/kg/injection, schedule: Q01DX015 (ip), vehicle: saline 95 % of control | dose: 8.0 mg/kg/injection, schedule: Q01DX015 (ip), vehicle: saline 94 % of control | dose: 16.0 mg/kg/injection, schedule: Q01DX015 (ip), vehicle: saline 101 % of control | dose: 32.0 mg/kg/injection, schedule: Q01DX015 (ip), vehicle: saline 97 % of control | [1] 102 % of control
